# According to PubChem BioAssay AID488790 (NMMLSC, 2010):
# Test system: S. cerevisiae AGP1-GFP strain, flow cytometry fluorescence, 3 h
# Experiment: analog potency on AGP1-GFP expression in yeast, SAR follow-up, cell-based, flow cytometry, S. cerevisiae, cherry pick 3 (AID 488790)
structure (smiles),measurement,value
CCOC(=O)CS(=O)(=O)c1nc(-c2ccccc2)cc(C(F)(F)F)n1,EC50,4.59 µM
